Data taken from DBAASP.
≈ marks a conversion by molar mass, not a printed value. Blank lines part the entries; values can stand above or below the compound they belong to.

Assays:
Assay in all cases: ≥ marks a high value that may be exact or a test limit, other limits are often not marked, values filed in µg/mL are converted to µM
[1] = test system: Escherichia coli ATCC 25922
[2] = test system: Candida albicans NCTC 3179
[3] = test system: Staphylococcus aureus ATCC 25923
[4] = test system: Bacillus subtilis ATCC 6633
[5] = test system: Candida albicans ATCC 20032
[6] = test system: Escherichia coli IFO 12734
[7] = test system: Staphylococcus aureus IFO 12732
[8] = test system: Bacillus subtilis IFO 3513
[9] = test system: Staphylococcus sp. BCRC 10451
[10] = test system: Pseudomonas aeruginosa H1027
[11] = test system: Enterococcus faecium t62764
[12] = test system: Enterobacter cloacae 218R
[13] = test system: Enterococcus faecalis f43559
[14] = test system: Stenotrophomonas maltophilia ATCC 13637
[15] = test system: Pseudomonas aeruginosa H1030
[16] = test system: Escherichia coli ESBL 64771
[17] = test system: Pseudomonas aeruginosa 213
Pseudomonas aeruginosa 9 = test system: Pseudomonas aeruginosa 9
[18] = test system: Enterococcus faecalis W61950
[19] = test system: Staphylococcus aureus C623
[20] = test system: Escherichia coli ESBL 63103
[21] = test system: Pseudomonas aeruginosa PAO1 H103
[22] = test system: Pseudomonas aeruginosa 198
[23] = test system: Enterococcus faecium mic80
[24] = test system: Klebsiella pneumoniae ESBL 63575
[25] = test system: Klebsiella pneumoniae ESBL 61962
[26] = test system: Pseudomonas aeruginosa LES400
[27] = test system: Enterococcus faecalis ATCC 29212
[28] = test system: Staphylococcus aureus RN4220
Escherichia coli ML-35p = test system: Escherichia coli ML-35p
[29] = test system: Malassezia sympodialis ATCC 42132
Pseudomonas aeruginosa = test system: Pseudomonas aeruginosa
Enterobacter cloacae = test system: Enterobacter cloacae
[30] = test system: Candida albicans ATCC 90028
Bacillus subtilis = test system: Bacillus subtilis
Staphylococcus aureus = test system: Staphylococcus aureus
[31] = test system: Salmonella enterica subsp. enterica serovar Typhi
Escherichia coli = test system: Escherichia coli
[32] = test system: Pseudomonas aeruginosa ATCC 27853

Structure (SMILES): CC[C@H](C)[C@H](NC(=O)[C@H](CCCCN)NC(=O)[C@@H](NC(=O)[C@@H](NC(=O)[C@H](CC(N)=O)NC(=O)[C@H](CCC(=O)O)NC(=O)[C@H](CCC(=O)O)NC(=O)[C@H](CCC(N)=O)NC(=O)[C@@H](N)CCC(=O)O)C(C)C)C(C)C)C(=O)N[C@@H](CCC(N)=O)C(=O)N[C@@H](C)C(=O)N[C@@H](Cc1ccccc1)C(=O)N[C@@H](Cc1c[nH]c2ccccc12)C(=O)N[C@@H](CCCCN)C(=O)NCC(=O)N[C@@H](Cc1ccc(O)cc1)C(=O)N[C@@H](CCCCN)C(=O)N[C@@H](CCC(N)=O)C(=O)N[C@@H](CCCN=C(N)N)C(=O)N[C@@H](CCCCN)C(=O)N[C@@H](CCC(=O)O)C(=O)N[C@@H](Cc1ccc(O)cc1)C(=O)N[C@@H](CCSC)C(=O)O [EQEENVVKIQAFWKGYKQRKEYM]
MIC [1]: 2.15 µM (≈ 6.3 µg/mL) | MIC [2]: 28.3 µM (≈ 83 µg/mL) | MIC [3]: 32.1 µM (≈ 94 µg/mL)

Structure (SMILES): CC[C@H](C)[C@H](N)C(=O)N[C@@H](CC(C)C)C(=O)N1CCC[C@H]1C(=O)N[C@@H](CCCCN)C(=O)N[C@@H](CCCCN)C(=O)N[C@@H](CCCCN)C(=O)N1CCC[C@H]1C(=O)N[C@@H](Cc1c[nH]c2ccccc12)C(=O)N[C@@H](Cc1c[nH]c2ccccc12)C(=O)N1CCC[C@H]1C(=O)N[C@@H](Cc1c[nH]c2ccccc12)C(=O)N[C@@H](CCCN=C(N)N)C(=O)N[C@@H](CCCN=C(N)N)C(N)=O [ILPKKKPWWPWRR]
MIC [6]: ≥ 55.8 µM | MIC [7]: 3.49 µM (≈ 6.25 µg/mL) | MIC [8]: 3.49 µM (≈ 6.25 µg/mL)

Structure (SMILES): CC[C@H](C)[C@H](N)C(=O)N[C@@H](CC(C)C)C(=O)N1CCC[C@H]1C(=O)N[C@@H](Cc1c[nH]c2ccccc12)C(=O)N[C@@H](CCCCN)C(=O)N[C@@H](CCCCN)C(=O)N1CCC[C@H]1C(=O)N[C@@H](CCCCN)C(=O)N[C@@H](CC(C)C)C(=O)N1CCC[C@H]1C(=O)N[C@@H](Cc1c[nH]c2ccccc12)C(=O)N[C@@H](CCCN=C(N)N)C(=O)N[C@@H](CCCN=C(N)N)C(N)=O [ILPWKKPKLPWRR]
MIC [6]: 7.28 µM (≈ 12.5 µg/mL) | MIC [7]: 1.82 µM (≈ 3.13 µg/mL) | MIC [8]: 0.908 µM (≈ 1.56 µg/mL)

Structure (SMILES): CC[C@H](C)[C@H](NC(=O)[C@H](CCCN=C(N)N)NC(=O)[C@H](C)NC(=O)[C@H](CC(C)C)NC(=O)[C@@H](N)CCCN=C(N)N)C(=O)N[C@H](C(=O)N[C@H](C(=O)N[C@H](C(=O)N[C@@H](CCCN=C(N)N)C(=O)N[C@H](C(=O)N[C@@H](C)C(=O)N[C@@H](CCCN=C(N)N)C(=O)O)C(C)C)[C@@H](C)CC)C(C)C)C(C)C [RLARIVVIRVAR]
MIC [10]: 5.91 µM (≈ 8.4 µg/mL) | MIC [11]: 1.48 µM (≈ 2.1 µg/mL) | MIC [12]: 12 µM (≈ 17 µg/mL) | MIC [13]: 23.9 µM (≈ 34 µg/mL) | MIC [14]: 1.48 µM (≈ 2.1 µg/mL) | MIC [15]: ≥ 47.1 µM | MIC [16]: 12 µM (≈ 17 µg/mL) | MIC [17]: ≥ 95 µM | MIC (Pseudomonas aeruginosa 9): ≥ 95 µM | MIC [18]: 23.9 µM (≈ 34 µg/mL) | MIC [3]: 12 µM (≈ 17 µg/mL) | MIC [19]: 12 µM (≈ 17 µg/mL) | MIC [20]: 12 µM (≈ 17 µg/mL) | MIC [21]: 23.9 µM (≈ 34 µg/mL) | MIC [22]: ≥ 47.1 µM | MIC [23]: 5.91 µM (≈ 8.4 µg/mL) | MIC [24]: ≥ 95 µM | MIC [25]: ≥ 95 µM | MIC [26]: ≥ 47.1 µM | MIC [27]: 5.91 µM (≈ 8.4 µg/mL)

Structure (SMILES): NC(=O)[C@H](CCCN=C(N)N)NC(=O)[C@H](CCCN=C(N)N)NC(=O)[C@H](CCCN=C(N)N)NC(=O)[C@H](CCCN=C(N)N)NC(=O)[C@H](CCCN=C(N)N)NC(=O)[C@H](CCCN=C(N)N)NC(=O)[C@H](CCCN=C(N)N)NC(=O)[C@H](CCCN=C(N)N)NC(=O)[C@@H](N)CCCN=C(N)N [RRRRRRRRR]
MIC [28]: ≥ 100 µM | MIC (Escherichia coli ML-35p): ≥ 100 µM | MIC [29]: 9.83 µM (≈ 14 µg/mL)

Structure (SMILES): CC(C)C[C@H](NC(=O)[C@H](CCCCN)NC(=O)[C@H](CCCN=C(N)N)NC(=O)[C@H](Cc1ccccc1)NC(=O)[C@H](Cc1ccccc1)NC(=O)[C@H](CCCCN)NC(=O)[C@H](CCCCN)NC(=O)[C@H](Cc1ccccc1)NC(=O)[C@H](CCCN=C(N)N)NC(=O)[C@H](CCCCN)NC(=O)[C@@H](N)C(C)C)C(=O)N[C@@H](CCCCN)C(=O)N[C@@H](CCCCN)C(=O)N[C@@H](CO)C(N)=O [VKRFKKFFRKLKKS]
MIC (Pseudomonas aeruginosa): 17.4 µM (≈ 32 µg/mL) | MIC (Enterobacter cloacae): ≥ 139 µM | MIC [30]: ≥ 69.6 µM | MIC [1]: 69.6 µM (≈ 128 µg/mL) | MIC (Bacillus subtilis): ≥ 34.8 µM | MIC [3]: 2.17 µM (≈ 4 µg/mL) | MIC (Staphylococcus aureus): 69.6 µM (≈ 128 µg/mL) | MIC [31]: 17.4 µM (≈ 32 µg/mL) | MIC (Escherichia coli): 17.4 µM (≈ 32 µg/mL) | MIC [32]: 69.6 µM (≈ 128 µg/mL)

Continued, values first:

MIC [1]: 18.7 µM (≈ 37.5 µg/mL) | MIC [4]: 4.68 µM (≈ 9.4 µg/mL) | MIC [3]: 4.68 µM (≈ 9.4 µg/mL) | MIC [5]: 9.37 µM (≈ 18.8 µg/mL)
Structure (SMILES): CC[C@H](C)[C@H](NC(=O)CN)C(=O)NCC(=O)NCC(=O)N[C@@H](C)C(=O)N[C@@H](CC(C)C)C(=O)N[C@@H](CC(C)C)C(=O)N[C@@H](CO)C(=O)N[C@@H](C)C(=O)NCC(=O)N[C@@H](CCCCN)C(=O)N[C@@H](C)C(=O)N[C@@H](C)C(=O)N[C@@H](CC(C)C)C(=O)N[C@@H](CCCCN)C(=O)NCC(=O)N[C@@H](CC(C)C)C(=O)N[C@@H](C)C(=O)N[C@@H](CCCCN)C(=O)N[C@H](C(=O)N[C@@H](CC(C)C)C(=O)N[C@H](C(N)=O)C(C)C)C(C)C [GIGGALLSAGKAALKGLAKVLV]

MIC [1]: > 42.9 µM | MIC [4]: ≥ 42.9 µM | MIC [3]: 8.06 µM (≈ 18.8 µg/mL) | MIC [5]: ≥ 42.9 µM
Structure (SMILES): CC[C@H](C)[C@H](NC(=O)CN)C(=O)NCC(=O)NCC(=O)N[C@@H](C)C(=O)N[C@@H](CC(C)C)C(=O)N[C@@H](CC(C)C)C(=O)N[C@@H](CO)C(=O)N[C@@H](C)C(=O)NCC(=O)N[C@@H](CCCCN)C(=O)N[C@@H](CO)C(=O)N[C@@H](C)C(=O)N[C@@H](CC(C)C)C(=O)N[C@@H](CCCCN)C(=O)NCC(=O)N[C@@H](CC(C)C)C(=O)N[C@@H](C)C(=O)N[C@@H](CCCCN)C(=O)NCC(=O)N[C@@H](CC(C)C)C(=O)N[C@@H](C)C(=O)N[C@@H](CCC(=O)O)C(=O)N[C@@H](Cc1cnc[nH]1)C(=O)N[C@@H](CC(C)C)C(N)=O [GIGGALLSAGKSALKGLAKGLAEHL]

MIC [9]: ≥ 37.4 µM
Structure (SMILES): CC[C@H](C)[C@H](NC(=O)[C@H](CCCCN)NC(=O)[C@@H]1CCCN1C(C)=O)C(=O)N[C@H](C(=O)N[C@@H](CO)C(=O)N[C@@H](CO)C(=O)N1CCC[C@H]1C(=O)N[C@@H](CC(C)C)C(=O)N[C@@H](Cc1ccccc1)C(=O)N[C@@H](CCCCN)C(=O)N[C@H](C(=O)N[C@@H](CC(C)C)C(=O)N[C@@H](CC(C)C)C(=O)N[C@@H](CO)C(=O)N[C@@H](C)C(=O)N[C@H](C(=O)NCC(=O)N[C@@H](CO)C(=O)N[C@@H](C)C(=O)N[C@@H](CC(C)C)C(=O)N[C@@H](CO)C(=O)N[C@@H](CO)C(=O)N[C@@H](CO)C(=O)NCC(=O)NCC(=O)N[C@@H](CCC(N)=O)C(=O)N[C@@H](CCC(=O)O)C(N)=O)C(C)C)[C@@H](C)O)[C@@H](C)CC [PKIISSPLFKTLLSAVGSALSSSGGQE]
